Laboratory results from patent US7741274B2, “Casein derived peptides and uses thereof in therapy” (priority 2000, dated 2010).

Key:
[1] = tested on: Non-Obese Diabetic (NOD) mice; experiment: Prevention of glucosuria / Juvenile (Type I, IDDM) Diabetes in NOD mice; assay type: in vivo, mouse; details: for Healthy/Total* (healthy and well = sugar not detected in urine): female NOD mice
Protocol: Juvenile (Type I, IDDM) Diabetes in Non-Obese Diabetic (NOD) Mice:
Peptides Derived from Natural Casein:
NOD mice are a commonly used model for research of autoimmune disease and human Juvenile Diabetes. Six week old female NOD mice received either one or two injections per week of 100 μg of peptides derived from natural casein, for a total of 5 or 11 treatments. Control mice received no treatment. The severity of disease was determined according to glucosuria, which was measured using Combi test sticks [Gross, D. J. et al. (1994), Diabetology, 37:1195]. Results were expressed as the percent of glucosuria-free mice in each sample over a 365-day period.
Synthetic Peptides Derived from Casein:
In another experiment, 6 week old female NOD mice received one injection per week of 100 μg of Synthetic peptides derived from casein for a total of 5 treatments. Control mice received no treatment. Results were expressed as the number of healthy mice in the various treated groups.

[2] = tested on: human Peripheral Blood Stem Cells (PBSC); experiment: Natural Killer (NK) cell activity in cultured human PBSC (lysis of K562 target cells); assay type: cell-based
Protocol: Stimulation of Proliferation of Natural Killer (NK) Cells:
From human Peripheral Blood Stem Cells (PBSC): PBSC of G-CSF treated subjects were separated on a FICOLL gradient, washed twice with RPMI-1640 medium and seeded into 1.5 ml wells with or without peptides derived from natural casein or synthetic peptides derived from casein, as indicated, (0-500 μg per ml). Following two days incubation the cells were assayed for Natural Killer activity by measuring radioactivity released from ^35S-labeled K562 target cells (NEG-7Q9A, 185.00 MBq, 2.00 mCi EASYTAGth Methionine, L-[^35S] 43.48 TBq per mmol, 1175.0 Ci per mmol, 0.488 ml, Boston USA). Two concentrations of effector cells ([…] cells per well) were incubated with 5×10^3 target cells per well (effector:target cell ratios of 50:1 and 100:1, respectively) in U-bottomed 96 well tissue culture plates. The cells were incubated for 5 hours at 37° C. in 5% CO2, 95% air and precipitated by 5 minutes centrifugation at 1000 rpm. ^35S release was measured in 50 μl samples of the supernatant liquid.

HIV-1IIIB [3] = experiment: Inhibition of HIV-1 infection of CEM lymphocytes (cell counts, P24 antigen assay); assay type: cell-based; details: for HIV-1 infection level, P24 antigen: untreated control 0.52
Protocol: (§1) Inhibition of in vitro HIV infection of human lymphocyte cells:
(§2) Peptides: Peptides (either peptides derived from natural casein or synthetic peptides derived from casein (1-25 amino acids in length, see table 3) supplied as lyophilized powder were resuspended in RPMI complete medium and added to cell cultures at a final concentrations of 50 to 1000 μg per ml.
Cells: Several types of freshly isolated human cells (primary cells) and cell lines are known to be susceptible to in vitro HIV-1 infection, although essentially any cell displaying even low surface levels of the CD4 molecule can be considered a potential target for HIV-1 infection. Two commonly used human cell lines which are highly sensitive for HIV-1 infection were chosen, CEM and Sup-T1.
CEM is a human T4-lymphoblastoid cell line initially derived by G. E. Foley et al. [(1965), Cancer 18:522] from peripheral blood buffy coat of a person with acute lymphoblastic leukemia. These cells were continuously maintained in suspension in medium, and have been used widely for analysis of infectivity, antiviral agents and neutralizing antibodies.
Virus: The HIV virus strain employed was HIV-1IIIB, originally designated HTLV-IIIB. Concentrated culture fluids of peripheral blood from several patients with AIDS or related diseases were used to establish a permanent productive infection in H-9 cells. This subtype B virus has high capacity to replicate in human T-cell lines. Viral titer was 5.38 ng per ml in stock solution.
HIV-1 P24 antigen capture assay: An HIV-1 P24 Antigen capture assay kit employed was designed to quantitate the HIV-1 P24 core antigen, which is proportionally related to the degree of viral production in cells. This kit was purchased from the AIDS Vaccine program of the SAIC-NCI-Frederick Cancer Research Institute, P.O. Box B, Frederick, Md. 21702, USA and included 96 well plates coated with monoclonal antibody to HIV-1 P24, primary antibody-rabbit anti-HIV P24 serum, secondary antibody-Goat anti-rabbit-IgG (H+ L) peroxidase conjugated antibody, TMB peroxidase substrate system and lysed HIV-1 P24 standard. The HIV-1 P24 antigen capture assay was analyzed by Organon-Technica ELISA reader at 450 nm with a reference at 650 nm.
HIV-1 P24 antigen capture ELISA: HIV infection was measured with an indirect enzyme immunoassay which detects HIV-1 P24 core antigens in tissue culture media. Tissue culture supernatant was reacted with primary rabbit anti-HIV-1 P24 antigen and visualized by peroxidase conjugated goat anti rabbit IgG. The reaction was terminated by adding 4N H2SO4, wherein the intensity of the color developed is proportional to the amount of HIV-1 antigen present in the tissue culture supernatant.
HIV infection of human cultured CD4+ cells: The cells (CEM, Sup-T1) were preincubated with several increasing concentrations of peptides derived from natural casein (50-1000 μg per ml) or synthetic peptides derived from casein (10-500 μg per ml) for 3, 24 (for synthetic and natural peptides) and 48 (only for natural peptides) hours and HIV-1IIIB (45 μg per ml final concentration) was added to each well thereafter. HIV-1IIIB was preincubated with the peptides for 3 hours and then added to cells (5000 cells/well) in tissue culture plates. Controls were IF (Infected, cells cultured with HIV-1 and without peptides), UIF (Uninfected, cells cultured without HIV-1 and without peptides) and UIF+Ch (Uninfected+peptides derived from natural casein, cells cultured in the presence of peptides derived from natural casein {50-1000 μg per ml}) to test the effect of peptides derived from natural casein and synthetic peptides derived from casein on cell viability and growth. Cells were counted for viability and proliferation rate on day 7, 10 and day 14 post infection (the day of P24 antigen culture supernatant harvest). Cells and tissue culture supernatants (media) were harvested and lysed immediately in 1/10 volume of 10% Triton X-100. […]

[4] = tested on: lethally irradiated, bone marrow-reconstituted mice; experiment: Leukocyte and platelet reconstitution in bone marrow transplant recipient mice; assay type: in vivo, mouse; details: 12 days post transplantation
Protocol: Leukocyte and platelet reconstitution in bone marrow transplant recipient mice: BALB/c mice were lethally irradiated at a source to skin distance of 70 cm, dosage of 50 cGy per minute, for a total of 600 cGy. The irradiated mice were […] casein, synthetic peptides derived from casein (13-26 amino acids, see Table 3 above), or human serum albumin (controls), following a double-blinded protocol. Leukocyte reconstitution was determined according to cell count in peripheral blood collected at indicated intervals from 6 to 12 days post treatment. Platelet reconstitution was determined by cell count in blood collected from the retro orbital plexus, into heparinized capillaries, at indicated intervals from day 6 to day 15 post treatment.
In an additional series of experiments, CBA mice were lethally irradiated (900 cGy), reconstituted and treated with peptides derived from natural casein or human serum albumin as described above. Platelet reconstitution was assayed as mentioned above.
In a third series of experiments, the mice were irradiated (800 cGy), reconstituted and injected intraperitoneally with 100 μg synthetic peptides derived from casein (peptides 3a and 4P, representing the first 6 and 12 amino acids of the N terminus of αS1 casein, respectively—see Table 3 above) daily, on days 4, 5, 6 and 7 post-transplantation. Platelet reconstitution was assayed at 10 and 12 days post-transplantation.

[5] = tested on: murine primary bone marrow cells; experiment: Multipotential colonies (CFU-GEMM) from murine bone marrow cells, colony and differential counts; assay type: cell-based, mouse
Protocol: Stimulation of Hematopoiesis from Bone Marrow (BM) Cells in Culture:
Proliferation of megakaryocytes in multipotential colonies (CFU-GEMM) from murine Bone Marrow cells: Primary bone marrow cells (1×10^5 per ml) from 8-12 week-old C3H/HeJ mice were grown in serum-free methyl cellulose-IMDM medium for 8-9 days at 5% CO2, 95% air, at 37° C. The medium, appropriate for the growth of multipotential colonies (CFU-GEMM), contained 1% BSA (Sigma), 10^−4 M thioglycerol (Sigma), 2.8×10^−4 M human transferrin (TF, Biological industries, Israel), 10% WEHI-CM as a source of IL-3 and 2 units per ml erythropoietin (rhEPO, R & D Systems, Minneapolis). Colonies were scored after 8-9 days using an Olympus dark field microscope. They were picked with a micropipette, cytocentrifuged and stained with May-Grunwald-Giemsa for differential counts. At least 700 cells were counted for each preparation. […]
Proliferation of Macrophage cells in CFU-GEMM: Multipotent (CFU-GEMM colonies grown from primary bone marrow cells as described for the assay of megakaryocyte proliferation above were collected, stained and counted for macrophage cells. At least 700 cells were counted for each preparation.
Proliferation of Red Blood Cells in CFU-GEMM: Multipotent (CFU-GEMM) colonies grown from primary bone marrow cells as described for the assay of megakaryocyte proliferation above were collected, stained and counted for red blood cells. At least 700 cells were counted for each preparation. […]

[6] = tested on: Non-Obese Diabetic (NOD) mice; experiment: Intraperitoneal Glucose Tolerance Test (IPGTT) in NOD mice; assay type: in vivo, mouse; set-up: IPGT TEST 0 min. (pre-load), plasma glucose: unit not given here
Protocol: Intraperitoneal Glucose Tolerance Test (IPGTT):
The glucose tolerance test is the definitive method for investigating glucose metabolism and diabetic tendencies in mammals. Twenty five (25) weeks after receiving Synthetic peptides derived from casein, response to a glucose load was assessed with an intraperitoneal glucose tolerance test. Glucose injection consisted of 1 g/kg body weight. Glycemic values were determined from blood drawn prior to test (0 minutes) and 60 minutes after loading.

HIV-1IIIB [7] = experiment: Inhibition of HIV-1 infection of Sup-T1 cells; assay type: cell-based
Protocol: as §1, §2
Cells: Several types of freshly isolated human cells (primary cells) and cell lines are known to be susceptible to in vitro HIV-1 infection, although essentially any cell displaying even low surface levels of the CD4 molecule can be considered a potential target for HIV-1 infection. Two commonly used human cell lines which are highly sensitive for HIV-1 infection were chosen, CEM and Sup-T1. […]
HIV-1 P24 antigen capture assay: An HIV-1 P24 Antigen capture assay kit employed was designed to quantitate the HIV-1 P24 core antigen, which is proportionally related to the degree of viral production in cells. […] The HIV-1 P24 antigen capture assay was analyzed by Organon-Technica ELISA reader at 450 nm with a reference at 650 nm.
HIV-1 P24 antigen capture ELISA: HIV infection was measured with an indirect enzyme immunoassay which detects HIV-1 P24 core antigens in tissue culture media. […]

[8] = individual healthy NOD mice, 25 weeks after peptides
[9] = 100 μg once weekly for 5 weeks, evaluated after 25 weeks

With RPK [1P] the onset of glucosuria ([1]; assayed at week 16, untreated controls 100% glucosuria, data not shown) was “effectively prevented”, the “effect on NK activity in PBSC cultures from healthy human donors” value [2] was “No significant effect” and the “patients (of 5 tested) responding” value ([2]; 25 μg/ml peptide concentration) was 3. For the same substance, the “patients (of 5 tested) responding” value ([2]; 100 μg/ml peptide concentration) was 1, the “patients (of 5 tested) responding” value ([2]; 250 μg/ml peptide concentration) was 1 and the lymphocyte cell numbers (HIV-1IIIB [3]; 100 μg per ml, 3 hours pretreatment, infected control 1.06×10^6) was 1.29 ×10^6. The “HIV-1 infection level, P24 antigen” value (HIV-1IIIB [3]; 100 μg/ml, 7 days post infection) was 0.17 ng P24 Antigen/ml, the lymphocyte cell numbers (HIV-1IIIB [3]; 500 μg per ml, 3 hours pretreatment, infected control 1.06×10^6) was 2.01 ×10^6 and the “HIV-1 infection level, P24 antigen” value (HIV-1IIIB [3]; 500 μg/ml, 7 days post infection) was 0.14 ng P24 Antigen/ml. For the same substance, the “resistance of CEM cells to HIV-1 infection (in words)” value (HIV-1IIIB [3]; 3 hours pretreatment) was “significant degree of resistance to infection”.

In the case of RPKHPI [4P], the “increase of platelet counts over untreated controls” value [4] is reported as 29%, the platelet counts ([4]; 800 cGy, 100 μg per mouse i.p. on days 4-7, controls 676 (4P) and 461 (3a)) is reported as 872000 mL⁻¹ and the “megakaryocyte formation and development” value ([5]; 8 days treatment) is reported as “significant increase”. The cell counts (HIV-1IIIB [3]; 25 μg per ml, 3 hours pretreatment, infected control 1.06×10^6) was 1.26 ×10^6, the cell numbers (HIV-1IIIB [3]; 250 μg per ml, 3 hours preincubation, infected control 1.06×10^6) was 1.59 ×10^6 and the “resistance of CEM cells to HIV-1 infection (in words)” value (HIV-1IIIB [3]; 3 hours pretreatment) was “significant effect on the susceptibility”. For the same substance, the “viral particles by HIV-P24 antigen assay vs untreated, infected control” value (HIV-1IIIB [3]; 7 days post infection) was “dose dependent reduction”.

For RPKHPIKHQGLPQE [B], the “IPGT TEST 0 min. (pre-load), plasma glucose” value (shortened to “IPGT TEST 0 min. (pre-load)”) [6, 8] was 130, the “IPGT TEST 60 min. post load, plasma glucose” value ([6]; individual healthy NOD mice, 25 weeks after peptides, glucose 1 g/kg i.p.) was 97 mmol/L and the “Healthy/Total* (healthy and well = sugar not detected in urine)” value [1, 9] was 2/5.

With RPKHPIKHQ [X] the “IPGT test result (in words)” value ([6]; healthy NOD mice after 25 weeks) was “no evidence of abnormal glucose metabolism”, the “IPGT TEST 0 min. (pre-load)” value [6, 8] was 94 and the “macrophages, % of total cell count” value ([5]; approximately 17% in unincubated controls) was about 30%. For the same substance, the “prevention of glucosuria (in words)” value [1, 9] was “highly effective”, the “Healthy/Total* (healthy and well = sugar not detected in urine)” value [1, 9] was 3/5 and the “increase in lymphocyte cell number in infected cells” value (HIV-1IIIB [7]; 250 μg) was 80%. For the same substance, the “increase in lymphocyte cell number in infected cells” value (HIV-1IIIB [7]; 500 μg per ml) was 33%.

RPKHPIKHQG [1a] was tested, and the “IPGT TEST 0 min. (pre-load)” value [6, 8] was 88 and the “Healthy/Total* (healthy and well = sugar not detected in urine)” value [1, 9] was 1/5.
